This assay concerns the target T1, GPR3 (Homo sapiens, UniProt P46089, INS231ASEIGTGFPFDPHYVEVLGERMHYVDVGPRDGTPVLFLHGNPTSSYVWRNIIPHVAPTHRCIAPDLIGMGKSDKPDLGYFFDDHVRFMDAFIEALGLEEVVLVIHDWGSALGFHWAKRNPERVKGIAFMEFIRPIPTWDEWPEFARETFQAFRTTDVGRKLIIDQNVFIEGTLPMGVVRPLTEVEMDHYREPFLNPVDREPLWRFPNELPIAGEPANIVALVEEYMDWLHQSPVPKLLFWGTPGVLIPPAEAARLAKSLPNCKAVDIGPGLNLLQEDNPDLIGSEIARWLSTLEISGGS).
T1 construct: ligated to the full-length C-terminus; expressed in transfected cells; some experiments transient
Briefly: BRET-based conformational GPR3 biosensor (GPR3-HaloTag/Nluc) in HEK293A cells. The assay is classed as cell-based. The following applies: for EC50: HEK293A cells stably expressing the biosensor, read-out: EC50 at GPR3-HaloTag/Nluc. An excerpt:
To develop a conformational GPR3 biosensor that can be used in a microtiter well plate format, we employed the intramolecular BRET design previously validated for several GPCRs. − The BRET donor NanoLuc was fused to the receptor’s full-length C-terminus and the self-labeling protein tag, HaloTag, was inserted into GPR3′s third intracellular loop between amino acids Arg231 and His232 (Figure a; sequence in Figure S1). […]
Plasmids and molecular cloning […]
Plasmids encoding the conformational biosensors α2AAR- and β2AR-HaloTag/Nluc9 and the Gs heterotrimer dissociation sensor10 were previously described. The expression plasmid encoding N-terminally HA-tagged GPR3 (cat. no.
#GPR003TN00) on a pcDNA3.1+ vector was obtained from the cDNA resource center (cdna.org). The Nluc and HaloTag in-serts were amplified with overhanging restriction sites from β2AAR- HaloTag/Nluc and ligated to the full-length C-terminus or inserted into icl3 of GPR3, respectively, to obtain the conformational biosensor GPR3-HaloTag/Nluc. Point mutants of GPR3-HaloTag/Nluc were generated using the GeneArt Site-directed Mutagenesis System (Thermo Fisher Scientific). All con-structs were verified by sequencing (Eurofins genomics). […]
serum albumin (BSA) were obtained from Sigma Aldrich (Merck KGaA). Dulbecco's Modified Eagle's Medium (DMEM), Dul- […]
Diphenyleneiodonium chloride (DPI) and AF64394 were purchased from Tocris (Bio -Techne). The TMB (3, 3', 5, 5' tetramethyl benzidine) substrate reagent set was […]
were obtained in a single kit from Promega (cat. no. N1662). D-luciferin-sodium and the S1PR1 agonist III were from Med-ChemExpress. The Rluc substrate coelenterazine 400a was from NanoLight Technology (cat. no. 340 -10). White -wall, white - bottomed 96 -well, black -wall, black bottomed and transparent 96 -well microtiter plates were from Brand.
HEK293A cells were used for transient transfection and grown in Dulbecco’s modified Eagle’s medium (DMEM) supplemented with 2 mM glutamine, 10 % fetal calf serum, streptomycin (0.1 mg/mL), and penicillin (100 U/mL) at 37 °C with 5 % CO2. For the generation of stable GPR3 -HaloTag/Nluc cells, HEK293A cells grown in T75 flasks were transfected at a confluence of 40 – […]
Absence of mycoplasma contamination was routinely
Transient transfection and plating
Resuspended cells (300,000 cells/mL) were transfected in suspension with a total of 1 μg DNA/mL suspension using PEI (1 mg/ml stock solution; 3 μL PEI solution per μg DNA). […]
Cells mixed with the transfection reagents were seeded onto poly-D-lysine–precoated, 96-well plates and grown for 48 h at 37 °C with 5 % CO2. Stable α2AAR-, β2AR- or GPR3-HaloTag/Nluc expressing cells were seeded 24 h before the experi-ment at a density of 800,000 cells/mL into white 96-well plates. To monitor changes in BRET in with conformational GPCR […]
experiment. White plates were used for BRET and luminescence measurements, black plates for FRET experiments and trans-parent plates for absorbance-based quantification of receptor surface expression levels.
For orientation: Bioluminescence resonance energy transfer reports proximity on the nanometre scale.

3 compounds from paper PMC13195669, “GPR3 Ligands Discovered through Combined Virtual and Conformational Biosensor-Based Screening” (Journal of the American Chemical Society, 2026) can be followed below.

T1 sequence (P46089 with tags, fused parts or gaps with the stated changes): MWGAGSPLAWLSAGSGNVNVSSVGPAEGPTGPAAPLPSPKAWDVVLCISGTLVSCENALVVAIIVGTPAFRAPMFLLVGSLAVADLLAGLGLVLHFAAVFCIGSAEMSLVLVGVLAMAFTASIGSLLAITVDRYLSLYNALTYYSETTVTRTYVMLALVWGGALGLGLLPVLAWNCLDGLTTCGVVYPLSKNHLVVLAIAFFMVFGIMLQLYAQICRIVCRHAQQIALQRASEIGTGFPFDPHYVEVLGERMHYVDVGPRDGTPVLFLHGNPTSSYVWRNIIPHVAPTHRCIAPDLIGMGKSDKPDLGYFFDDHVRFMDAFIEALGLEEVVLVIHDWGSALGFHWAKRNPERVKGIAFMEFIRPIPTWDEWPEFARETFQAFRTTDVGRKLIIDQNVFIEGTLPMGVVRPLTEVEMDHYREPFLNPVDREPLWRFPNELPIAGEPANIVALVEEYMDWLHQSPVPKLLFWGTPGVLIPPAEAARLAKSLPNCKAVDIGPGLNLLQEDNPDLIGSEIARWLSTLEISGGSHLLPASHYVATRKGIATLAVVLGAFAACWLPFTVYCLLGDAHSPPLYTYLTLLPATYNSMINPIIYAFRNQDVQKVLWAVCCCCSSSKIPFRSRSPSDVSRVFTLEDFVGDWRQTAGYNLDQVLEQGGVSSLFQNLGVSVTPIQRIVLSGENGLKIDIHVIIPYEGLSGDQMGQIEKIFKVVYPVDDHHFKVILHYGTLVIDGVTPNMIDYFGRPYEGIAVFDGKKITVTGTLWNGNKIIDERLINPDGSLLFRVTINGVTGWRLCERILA

Consider `N=c1n(Cc2ccccc2)c2ccccc2n1CC(O)COc1ccc(Cl)cc1` (stereo not shown) [compound 52], for which the EC50 worked out at 25 µM. As for `N=c1n(Cc2ccccc2)c2ccccc2n1CC1CC1` [compound 33], the EC50 was 5 µM. Besides, the “effect of preincubation on OEA and oleamide potency in GPR3 conformation assay” value (30 µM preincubation) was “reduced potency of OEA, but not oleamide”. For the compound `Cc1ccc(NC(=O)CN2CCN(C(=O)CCc3ccc(Cl)cc3)CC2)cc1` [compound 115], the EC50 amounted to 85 µM.
